Article PMC12699035, “Exploring market-approved azoles as potential breast cancer therapeutics targeting the VEGFR-2 biotarget” (Scientific Reports, 2025)
Where two headings read alike, the source gives them in different places.

Experiments:
MCF-10A cells = test: Cytotoxicity against MCF-10A cells, MTT assay (five doses); assay type: cell-based; details: Homo sapiens, MCF-10A normal cells, five dose concentrations, n = 3, read-out: MCF-10A IC50 ± SD
VEGF = test: Immunohistochemical staining of VEGF in SEC tumor sections; assay type: in vivo, mice; details: IHC of SEC tumor
Source text: VEGF has been considered a biomarker for VEGFR-2 bioactivity, as it binds to and activates this kinase receptor, playing a crucial role in angiogenesis. High VEGF levels are often associated with increased VEGFR-2 expression and activity, making VEGF a marker for VEGFR-2's function and tumor growth. […] The staining intensity is strong (+ 3), with dark brown cytoplasmic staining in most tumor cells. The immunoreactive score (IRS), calculated by multiplying the staining intensity score and the percentage of positive cells, is 9–12, indicating a high level of VEGF expression. This intense VEGF expression correlates with the presence of numerous irregular and dilated blood vessels in the tumor microenvironment.
The paraffin-infiltrated tissue was sliced into thin sections (4-6 μm) using a microtome and floated in a water bath. The sections were then mounted onto charged slides and left to dry overnight. The use of charged slides ensures the sections adhere properly to the slide. To carry out antibody staining, the paraffin wax was removed from the sample, and the tissue was rehydrated. The paraffin was eliminated by placing the tissue sections in three containers of xylene for 5 minutes each. Rehydration began by immersing the sections in two containers of 100% ethanol for 10 minutes each, followed by two containers of 95% ethanol for 10 minutes each. Finally, to complete the rehydration, the sections were washed twice in deionized water for 5 minutes each.
For antigen retrieval, the slides are heated in 10 mM Tris/1 mM EDTA, pH 9.0, kept at a sub-boiling temperature for 18 minutes, and then allowed to cool at room temperature for 30 minutes. For chromogenic staining detection, the sections are rinsed in deionized water three times for 5 minutes each, and then the endogenous peroxidase activity in the tissue sections is quenched to prevent high background staining by incubating the sections in 3% hydrogen peroxide for 10 minutes. Afterward, the sections are washed twice in deionized water for 5 minutes each, followed by a single wash in wash buffer for 5 minutes. A hydrophobic pen is used to carefully draw a large circle around the sample, ensuring it doesn’t touch the sample, creating a hydrophobic boundary to achieve optimal antibody staining quality. To prevent non-specific antibodies from binding to the tissue, each section is blocked with 100–400 µl of blocking solution for 1 hour at room temperature in a humidified chamber. The blocking solution was discarded, and 100–400 µl of diluted primary antibody was applied. […]
The slides were incubated overnight at 4°C in a humidified chamber. […] Then, 100–400 µl of Signal Stain DAB was applied to each section and monitored closely for 1–10 minutes until an acceptable staining intensity was achieved. […]

MCF-7 cells = test: Cytotoxicity against MCF-7 cells, MTT assay (single dose and five doses)

Question: Which IC50 (MCF-10A cells) does the source give for `CCC(C)n1ncn(-c2ccc(N3CCN(c4ccc(OCC5COC(Cn6cncn6)(c6ccc(Cl)cc6Cl)O5)cc4)CC3)cc2)c1=O` (stereo not drawn) [Itraconazole, itraconazole] here?
Answer: The IC50 was 49.6 ± 2.5 µM.

Question: What about the “immunoreactive score (IRS)” value (VEGF; scale 0-12, SEC control 9–12) of the same compound?
Answer: Its value is 4–8.

Question: And the “percentage of VEGF-positive tumor cells” value (VEGF; SEC control 80–90%)?
Answer: Its value is 40–60%.

Question: What about the viability at 100 µg/mL (MCF-7 cells; Homo sapiens, MCF7, read-out: Average viability%) of the same compound?
Answer: Its viability at 100 µg/mL is 69.5%.

Question: What about the IC50 (MCF-7 cells; Homo sapiens, MCF7, read-out: MCF-7 IC50 ± SD, MCF-7, five dose concentrations, MTT, n = 3) of the same compound?
Answer: Its IC50 is 25.7 ± 0.9 µM.

Question: And the viability at 100 µg/mL (MCF-7 cells; Homo sapiens, MCF7, read-out: Viability (%) 1)?
Answer: The viability at 100 µg/mL was 70.8%.

Question: And the viability at 100 µg/mL (MCF-7 cells; Homo sapiens, MCF7, read-out: Viability (%) 2)?
Answer: The viability at 100 µg/mL was 70.1%.

Question: And the viability at 100 µg/mL (MCF-7 cells; Homo sapiens, MCF7, read-out: Viability (%) 3)?
Answer: Its viability at 100 µg/mL is 67.7%.

Question: And the “Average OD” value (MCF-7 cells; MCF-7, single dose 100 μg/mL, MTT optical density, average of triplicates)?
Answer: Its value is 2.24.

Question: What about the OD1 (MCF-7 cells; MCF-7, single dose 100 μg/mL, MTT optical density, replicate 1) of the same compound?
Answer: Its OD1 is 2.28.

Question: And the OD2 (MCF-7 cells; MCF-7, single dose 100 μg/mL, MTT optical density, replicate 2)?
Answer: Its OD2 is 2.26.

Question: And the OD3 (MCF-7 cells; MCF-7, single dose 100 μg/mL, MTT optical density, replicate 3)?
Answer: Its OD3 is 2.18.
